Where “and” joins values, the source holds several entries; their conditions need not be identical. Identical values can stand only once. Toxic doses and inconclusive results are not listed. Rule as the data show it: active = T/C of 150% or more; inactive = T/C below 125%.
Test system: L1210 leukemia ip in BDF1 mice, survival T/C
Experiment: NCI In Vivo Anticancer Drug Screen. Data for tumor model L1210 Leukemia (intraperitoneal) in B6D2F1 (BDF1) mice
Conditions: endpoint: mean survival time, higher = longer survival
How it was run: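 Read-out is survival time, reported as the treated-group measurement over the vehicle-control measurement.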

[1] = dose: 100.0 mg/kg/injection, schedule: Q01DX009 (ip), vehicle: Klucel (hydroxypropylcellulose) (HPC)
[2] = dose: 200.0 mg/kg/injection, schedule: Q01DX009 (ip), vehicle: Klucel (hydroxypropylcellulose) (HPC)
[3] = dose: 400.0 mg/kg/injection, schedule: Q01DX009 (ip), vehicle: Klucel (hydroxypropylcellulose) (HPC)
[4] = dose: 100.0 mg/kg/injection, schedule: Q01DX001 (ip), vehicle: carboxymethylcellulose (CMC)
[5] = dose: 200.0 mg/kg/injection, schedule: Q01DX001 (ip), vehicle: carboxymethylcellulose (CMC)
[6] = dose: 400.0 mg/kg/injection, schedule: Q01DX001 (ip), vehicle: carboxymethylcellulose (CMC)
[7] = dose: 100.0 mg/kg/injection, schedule: Q01DX009 (ip), vehicle: saline with Tween-80
[8] = dose: 100.0 mg/kg/injection, schedule: Q04DX002 (ip), vehicle: saline with Tween-80
[9] = dose: 200.0 mg/kg/injection, schedule: Q01DX009 (ip), vehicle: saline with Tween-80
[10] = dose: 200.0 mg/kg/injection, schedule: Q04DX002 (ip), vehicle: saline with Tween-80
[11] = dose: 400.0 mg/kg/injection, schedule: Q04DX002 (ip), vehicle: saline with Tween-80
[12] = dose: 100.0 mg/kg/injection, schedule: Q04DX003 (ip), vehicle: saline with Tween-80
[13] = dose: 200.0 mg/kg/injection, schedule: Q04DX003 (ip), vehicle: saline with Tween-80
[14] = dose: 400.0 mg/kg/injection, schedule: Q04DX003 (ip), vehicle: saline with Tween-80

Measured: T/C

Nn1c(-c2ccccc2)c[n+]2ccccc12
inactive: dose: 75.0 mg/kg/injection, schedule: Q01DX001 (ip), vehicle: other 101 % of control | dose: 150.0 mg/kg/injection, schedule: Q01DX001 (ip), vehicle: other 97 % of control | dose: 300.0 mg/kg/injection, schedule: Q01DX001 (ip), vehicle: other 92 % of control

C[n+]1c(-c2ccc(Cl)cc2Cl)c2cc([N+](=O)[O-])ccc2c2ccccc21
inactive: dose: 12.5 mg/kg/injection, schedule: Q01DX009 (ip), vehicle: water 113 % of control | dose: 25.0 mg/kg/injection, schedule: Q01DX009 (ip), vehicle: water 113 % of control | dose: 25.0 mg/kg/injection, schedule: Q04DX003 (ip), vehicle: water 108 % of control | dose: 50.0 mg/kg/injection, schedule: Q01DX009 (ip), vehicle: water 101 % of control | dose: 100.0 mg/kg/injection, schedule: Q04DX003 (ip), vehicle: water 95 % of control

O=C(COc1cccc([N+](=O)[O-])c1)Nc1ccc(S(=O)(=O)F)cc1
inactive: [1] 102 % of control | [2] 100 % of control | [3] 100 % of control

CCOC(=O)c1ccc(NCc2nnc3nc(N)nc(N)c3n2)cc1
inactive: dose: 50.0 mg/kg/injection, schedule: Q01DX001 (ip), vehicle: saline with Tween-80 103 % of control | dose: 100.0 mg/kg/injection, schedule: Q01DX001 (ip), vehicle: saline with Tween-80 98 % of control | dose: 200.0 mg/kg/injection, schedule: Q01DX001 (ip), vehicle: saline with Tween-80 97 % of control

O=C(N/N=C/c1ccccc1)C(Oc1ccccc1)c1ccccc1 (stereo not given)
inactive: [4] 94 % of control | [5] 94 % of control | [6] 100 % of control

OCCNC(=S)Nc1cccc(C(F)(F)F)c1
inactive: [7] 100 % of control | [8] 91 % of control | [9] 97 % of control | [10] 98 % of control | [11] 112 % of control

O=C(O)c1cc(O)[nH]c(=O)c1
inactive: [12] 102 % of control | [13] 91 % of control | [14] 94 % of control

COC(=O)C(C)CN1CCCC1 (stereo not given)
inactive: dose: 12.5 mg/kg/injection, schedule: Q01DX009 (ip), vehicle: saline 97 % of control | dose: 25.0 mg/kg/injection, schedule: Q01DX009 (ip), vehicle: saline 88 % of control | dose: 25.0 mg/kg/injection, schedule: Q04DX003 (ip), vehicle: saline 98 % of control | dose: 50.0 mg/kg/injection, schedule: Q01DX009 (ip), vehicle: saline 100 % of control | dose: 50.0 mg/kg/injection, schedule: Q04DX003 (ip), vehicle: saline 107 % of control | dose: 100.0 mg/kg/injection, schedule: Q04DX003 (ip), vehicle: saline 104 % of control

O=C(Oc1cccc(O)c1)c1ccccc1
inactive: [1] 100 % of control | [2] 102 % of control | [3] 94 % of control

Nc1nc2c(c(=O)[nH]1)N(CC(=O)O)C(CNc1ccc(C(=O)NC(CCC(=O)O)C(=O)O)cc1)CN2 (stereo not given)
inactive: dose: 100.0 mg/kg/injection, schedule: Q01DX001 (ip), vehicle: alkali diluted with saline 94 % of control | dose: 200.0 mg/kg/injection, schedule: Q01DX001 (ip), vehicle: alkali diluted with saline 93 % of control | dose: 400.0 mg/kg/injection, schedule: Q01DX001 (ip), vehicle: alkali diluted with saline 96 % of control

CCOc1cc(/C=N/NC(=O)C(O)C(O)C(O)C(O)CO)ccc1O (stereo not given)
inactive: [7] 98 % of control and 103 % of control | [8] 100 % of control and 90 % of control | [12] 95 % of control | [9] 95 % of control and 91 % of control | [10] 108 % of control and 116 % of control | [13] 95 % of control | dose: 400.0 mg/kg/injection, schedule: Q01DX009 (ip), vehicle: saline with Tween-80 88 % of control and 90 % of control | [11] 90 % of control and 91 % of control | [14] 93 % of control

CN(C)P1(=S)NCCCO1 (stereo not given)
inactive: dose: 87.5 mg/kg/injection, schedule: Q01DX009 (ip), vehicle: other 97 % of control | dose: 175.0 mg/kg/injection, schedule: Q01DX009 (ip), vehicle: other 100 % of control | dose: 350.0 mg/kg/injection, schedule: Q01DX009 (ip), vehicle: other 100 % of control

OCC1C2CCC(C2)C1c1ccccc1 (stereo not given)
inactive: dose: 9.38 mg/kg/injection, schedule: Q01DX001 (ip), vehicle: saline 103 % of control

CC(C)CCc1nc2c(c(=O)n(C)c(=O)n2C)n1C
inactive: dose: 50.0 mg/kg/injection, schedule: Q01DX001 (ip), vehicle: carboxymethylcellulose (CMC) 116 % of control | [4] 103 % of control | [5] 103 % of control | [6] 103 % of control

O=C(O)C1(c2ccc(-c3ccccc3)cc2)CCCCC1
inactive: [12] 96 % of control | [13] 96 % of control | [14] 100 % of control

CCOC(=O)C1CC(=O)C(C(=O)OCC)CC1=O (stereo not given)
inactive: dose: 100.0 mg/kg/injection, schedule: Q01DX001 (ip), vehicle: saline 101 % of control | dose: 200.0 mg/kg/injection, schedule: Q01DX001 (ip), vehicle: saline 95 % of control | dose: 400.0 mg/kg/injection, schedule: Q01DX001 (ip), vehicle: saline 95 % of control

CC(C)(O)OC1COC(C2CS2)C1O (stereo not given)
inactive: dose: 100.0 mg/kg/injection, schedule: Q04DX002 (ip), vehicle: Klucel (hydroxypropylcellulose) (HPC) 94 % of control | dose: 200.0 mg/kg/injection, schedule: Q04DX002 (ip), vehicle: Klucel (hydroxypropylcellulose) (HPC) 98 % of control | dose: 400.0 mg/kg/injection, schedule: Q04DX002 (ip), vehicle: Klucel (hydroxypropylcellulose) (HPC) 102 % of control

Clc1ccc(OCCOc2ccc(Cl)cc2)cc1
inactive: [12] 95 % of control | [13] 92 % of control | [14] 106 % of control

Cc1ccc(Nc2cc(N)nc(N)n2)cc1Cl
inactive: dose: 100.0 mg/kg/injection, schedule: Q01DX Z (ip), vehicle: methylcellulose (MC) 101 % of control | dose: 200.0 mg/kg/injection, schedule: Q01DX Z (ip), vehicle: methylcellulose (MC) 89 % of control

Cc1ccc(NC(=O)Nc2cccc3ccccc23)c(C)c1
inactive: dose: 100.0 mg/kg/injection, schedule: Q04DX003 (ip), vehicle: Klucel (hydroxypropylcellulose) (HPC) 91 % of control | [2] 88 % of control | dose: 200.0 mg/kg/injection, schedule: Q04DX003 (ip), vehicle: Klucel (hydroxypropylcellulose) (HPC) 95 % of control | [3] 92 % of control | dose: 400.0 mg/kg/injection, schedule: Q04DX003 (ip), vehicle: Klucel (hydroxypropylcellulose) (HPC) 91 % of control

CCC1CN2CCc3cc(OC)c(OC)cc3C2CC1=O (stereo not given)
inactive: dose: 50.0 mg/kg/injection, schedule: Q01DX009 (ip), vehicle: saline with Tween-80 102 % of control | [7] 103 % of control and 108 % of control | [9] 124 % of control

CC1CC(C)OS(=O)O1 (stereo not given)
inactive: dose: 44.0 mg/kg/injection, schedule: Q01DX Z (ip), vehicle: saline 104 % of control | dose: 66.0 mg/kg/injection, schedule: Q01DX Z (ip), vehicle: saline 102 % of control | dose: 75.0 mg/kg/injection, schedule: Q01DX001 (ip), vehicle: acetone 103 % of control | dose: 100.0 mg/kg/injection, schedule: Q01DX Z (ip), vehicle: saline 91 % of control | dose: 150.0 mg/kg/injection, schedule: Q01DX001 (ip), vehicle: acetone 103 % of control | dose: 300.0 mg/kg/injection, schedule: Q01DX001 (ip), vehicle: acetone 101 % of control

COc1ccccc1C1CCCCCC1O (stereo not given)
inactive: dose: 100.0 mg/kg/injection, schedule: Q01DX009 (ip), vehicle: saline 98 % of control | dose: 200.0 mg/kg/injection, schedule: Q01DX009 (ip), vehicle: saline 98 % of control | dose: 400.0 mg/kg/injection, schedule: Q01DX009 (ip), vehicle: saline 98 % of control

From PubChem BioAssay AID248 (DTP/NCI, 2004)
